# According to patent publication US20140161342A1, “DENSITY-BASED METHOD OF COMPARING IMAGES AND DETECTION OF MORPHOLOGICAL CHANGES USING THE METHOD THEREOF” (CENTRE NATIONAL DE LA RECHERCHE SCIENTIFIQUE CNRS, priority 2011, published 2014):
# Legend:
# Assay type in all cases: cell-based, Human
# [1] = system: multivesicular bodies (MVB); test: Density-based comparison of multivesicular body (MVB) morphology, CD63 stain, micropatterned RPE-1 cells; conditions: nocodazole 10 μM, 1 h at 4° C. and 1 h at 37° C., 40 cells of CG, 40 cells of TG
# Protocol: Human RPE-1 cells kept in growth medium were trypsinized and seeded on micropattern-printed coverslips as described in EP 1664266. To depolymerize microtubules, nocodazole was added to a final concentration of 10 μM to TG. TG and CG were both subsequently incubated for 1 h at 4° C. and 1 h at 37° C. Cells were fixed with 4% (wt/vol) paraformaldehyde (PFA) and proceeded for indirect immunofluorescence staining with primary α-CD63 antibodies (Invitrogen) to visualize MVB, α-GM130 antibodies to visualize the Golgi apparatus and α-Sec13 antibodies to visualize ERES as well as fluorophore-coupled secondary antibodies. 3D image stacks of n cells of each condition (TG and CG) were acquired with 100× magnification and Z-series every 0.2 μm. […] The coordinates of the segmented structures from all cells were aligned using the micropattern geometry and the coordinate sample of the TG was compared with the coordinate sample of the CG using the above-described method for each intracellular compartment analyzed.
# Parts A and B of FIG. 5 illustrate representative fluorescent images of one cell from CG (designated by “Crtl”) and one cell from TG (designated by “NZ” for nocodazole) stained for MVB. […] As shown in prior art, the steady-sate three-dimensional organization of MVB is constant in micropatterned cells as analyzed here. […]
# [2] = system: multivesicular bodies (MVB); test: Live cell analysis of MVB in unconstrained EGFP-CD63-expressing RPE-1 cells; conditions: nocodazole 20 μM, last six time frames after addition
# Protocol: In this example, morphological changes in the steady-state organization of MVB were monitored in a time period between two instants t1 and t2 when using a drug treatment. Thus, the density-based method of the present invention is applied to life cell analysis. More precisely, MVB were analyzed in unconstrained cells before and after treatment with nocodazole, illustrating that the present invention is not limited to the comparison of constrained cells but can also apply to the comparative study of unconstrained cells.
# EGFP-CD63-expressing stable cells (generated by transfection of the plasmid pEGFP-CD63, Ostrowski et al. NATURE CELL BIOLOGY, January 2010) into RPE-1 cells and selection with 500 μg/ml geneticin) were seeded on iwaki glass base dishes (Asahi Glass) for live cell observation. To depolymerize microtubules, nocodazole (NZ) was added to a final concentration of 20 μM. […] The first two groups contained images in the absence of the drug (CG1 and CG2) and the second two groups contained images in the presence of the drug (TG1 and TG2) recorded after the addition of the drug. […]
# Groups CG1 and CG2 are non-treated control groups with 1080 and 1002 detected CD63-positive structures that were acquired before addition of the drug.
# Groups TG1 and TG2 are treated test groups containing 1019 and 801 structures that were recorded after the addition of the drug. […]
# Golgi apparatus = test: Density-based comparison of Golgi apparatus morphology, GM130 stain, micropatterned RPE-1 cells; conditions: nocodazole 10 μM, 15 cells of CG, 20 cells of TG
# Protocol: (§1) Human RPE-1 cells kept in growth medium were trypsinized and seeded on micropattern-printed coverslips as described in EP 1664266. To depolymerize microtubules, nocodazole was added to a final concentration of 10 μM to TG. TG and CG were both subsequently incubated for 1 h at 4° C. and 1 h at 37° C. Cells were fixed with 4% (wt/vol) paraformaldehyde (PFA) and proceeded for indirect immunofluorescence staining with primary α-CD63 antibodies (Invitrogen) to visualize MVB, α-GM130 antibodies to visualize the Golgi apparatus and α-Sec13 antibodies to visualize ERES as well as fluorophore-coupled secondary antibodies. 3D image stacks of n cells of each condition (TG and CG) were acquired with 100× magnification and Z-series every 0.2 μm. Images were deconvolved and segmented in order to detect signals that are fifteen-fold larger than noise. The coordinates of the segmented structures from all cells were aligned using the micropattern geometry and the coordinate sample of the TG was compared with the coordinate sample of the CG using the above-described method for each intracellular compartment analyzed.
# Parts A and B of FIG. 6 illustrate representative fluorescent images of one cell from CG (designated by “Crtl”) and one cell from TG (designated by “NZ” for nocodazole) stained for the Golgi apparatus. […]
# microtubules = test: Density-based comparison of microtubules (β-tubulin stain), micropatterned RPE-1 cells; set-up: dose or concentration left out as unconfirmed; conditions: nocodazole; 16 cells of CG, 16 cells of TG; tubulin structures
# Protocol: Human RPE-1 cells kept in growth medium were trypsinized and seeded on micropattern-printed coverslips as described in EP 1664266. To depolymerize microtubules, nocodazole was added to a final concentration of 10 M to TG. TG and CG were both subsequently incubated for 1 h at 4° C. and 1 h at 37° C. Cells were fixed with 4% (wt/vol) paraformaldehyde (PFA) and proceeded for indirect immunofluorescence staining with primary β-tubulin antibodies (Sigma-Aldrich) to visualize microtubules and fluorophore-coupled secondary antibodies.
# 3D image stacks of n cells of each condition (TG and CG) were acquired with 100× magnification and Z-series every 0.2 m. Images were deconvolved and segmented in order to detect signals that are larger than noise. To represent continuous structures (microtubules and Rab8-marked membranes domains) by a cloud of coordinates, we “cut” them in several small structures by increasing the watershed during segmentation. The coordinates of the segmented structures from all cells were aligned using the micropattern geometry and the coordinate sample of the TG was compared with the coordinate sample of the CG using the above-described method for each intracellular compartment analyzed.
# Each coordinate stands for one fluorescent fragment. […]
# [3] = system: endoplasmic reticulum exit sites (ERES); test: Density-based comparison of endoplasmic reticulum exit sites (ERES), Sec13 stain, micropatterned RPE-1 cells; conditions: nocodazole 10 μM, 15 cells of CG, 11 cells of TG
# Protocol: as §1
# Parts A and B of FIG. 7 illustrate representative fluorescent images of one cell from CG (designated by “Crtl”) and one cell from TG (designated by “NZ” for nocodazole) stained for ERES. […]
smiles,measurement,setting,value
COC(=O)Nc1nc2ccc(C(=O)c3cccs3)cc2[nH]1 [nocodazole],"P2D-value, comparison TG/CG",[1],1.589*10^−5
same,"P3D-value, comparison TG/CG",[1],1.280*10^−11
same,"P2D-value, non-treated group CG1 vs treated group TG2",[2],4.00*10^−6
same,"P3D-value, non-treated group CG1 vs treated group TG2",[2],4.84*10^−6
same,"P2D-value, comparison TG/CG",Golgi apparatus,0.9524*10^−2
same,"P3D-value, comparison TG/CG",Golgi apparatus,1.8741*10^−2
same,"P2D-value, comparison TG/CG",microtubules,6.5862*10^−41
same,"P3D-value, comparison TG/CG",microtubules,2.7758*10^−228
same,"P2D-value, comparison TG/CG",[3],0.3416*10^−3
same,"P3D-value, comparison TG/CG",[3],0.1118*10^−6
